Experimental data: patent US10071130B2, “Methods and compositions related to Hsp90 inhibitors and breast cancer” (The University of Chicago, priority 2013, dated 2018)

Experiments:
Type in all cases: cell-based
AR target gene TMPRSS2 = experiment: qRT-PCR of AR target gene transcript
[1] = tested on: GR-α translational isoforms; experiment: Western blot of GR protein after Hsp90 inhibitor treatment of TNBC cell lines; conditions: 50 nM, 8 hrs
Method: (§1) TNBC cell lines were pre-treated for 2 hours with dexamethasone (100 nM) followed by ganetespib (50 nM). Protein and transcript levels were analyzed using Western blot and qRT-PCR respectively.

[2] = tested on: GR target gene transcripts (SGK1 and MKP1/DUSP1); experiment: qRT-PCR of GR target gene transcripts in TNBC cell lines; conditions: 100 nM dex 2 hours, then ganetespib 50 nM
Method: as §1
This induction was reduced following ganetespib (50 nM) treatment.

AR protein = experiment: Western blot of AR protein after Hsp90 inhibitor treatment of TNBC cell lines; conditions: 50 nM, 8 hrs
Method: as §1

[3] = tested on: GR target genes in MDA-MB-231; experiment: Multiplex RT-PCR assay of GR target genes; conditions: MDA-MB-231, Veh/Veh = 1
Method: The multiplex RT-PCR assay was performed to discover GR target genes that are affected by HSP90 inhibitor treatment of a triple-negative breast cancer cell line, MDA-MB-231.

C[C@]1(O)CC[C@H]2[C@@H]3CCC4=CC(=O)CCC4=C3C=C[C@@]21C [R1881]
Expression of the AR target gene TMPRSS2 (AR target gene TMPRSS2; R1881 1 nM pre-treatment for 2 hours): induced

CC(C)c1cc(-c2n[nH]c(=O)n2-c2ccc3c(ccn3C)c2)c(O)cc1O [ganetespib]
GR-α translational isoforms protein level [1]: depleted | Dexamethasone induction of GR target gene transcripts (SGK1 and MKP1/DUSP1) [2]: reduced | AR protein level (AR protein): depleted | Androgen-induced expression of the AR target gene TMPRSS2 (AR target gene TMPRSS2; R1881 1 nM, concomitant ganetespib 50 nM): decreased

CCNC(=O)c1noc(-c2cc(C(C)C)c(O)cc2O)c1-c1ccc(CN2CCOCC2)cc1 [NVP-AUY922]
GR-α translational isoforms protein level [1]: depleted | AR protein level (AR protein): depleted

C[C@@H]1C[C@H]2[C@@H]3CCC4=CC(=O)C=C[C@]4(C)[C@@]3(F)[C@@H](O)C[C@]2(C)[C@@]1(O)C(=O)CO [dexamethasone]
ANGPTL4 transcript level [3]: 8.5 | BCL6 transcript level [3]: 2.6 | CALCR transcript level [3]: 4.3 | CEBPB transcript level [3]: 4.1 | DDIT4 transcript level [3]: 2.9 | DUSP1 transcript level [3]: 3.7 | EDN1 transcript level [3]: 2.3 | ERRFI1 transcript level [3]: 3.4 | FKBP5 transcript level [3]: 15.5 | GLUL transcript level [3]: 1.5 | IL6R transcript level [3]: 1.9 | KLF9 transcript level [3]: 9.5 | KLF13 transcript level [3]: 2.5 | LOX transcript level [3]: 2.4 | MT1E transcript level [3]: 2.7 | MT2A transcript level [3]: 3.0 | NFKBIA transcript level [3]: 2.0 | PER1 transcript level [3]: 12.7 | RHOB transcript level [3]: 5.6 | SESN1 transcript level [3]: 1.4 | SGK1 transcript level [3]: 2.9 | SLC19A2 transcript level [3]: 2.0 | SLC22A5 transcript level [3]: 1.3 | TNFAIP3 transcript level [3]: 2.2 | TSC22D3 transcript level [3]: 22.8 | USP2 transcript level [3]: 3.1 | XDH transcript level [3]: 1.3 | ZFP36 transcript level [3]: 4.3
